The values that follow come from ChEMBL document CHEMBL2311283, “Structural modifications to tetrahydropyridine-3-carboxylate esters en route to the discovery of M5-preferring muscarinic receptor orthosteric antagonists” (J Med Chem, 2013).

Assay [1] deals with T1, Muscarinic acetylcholine receptor M3 (Homo sapiens, UniProt P20309). Nature of the assay: Displacement of [3H]NMS from human M3 muscarinic receptor expressed in CHO-K1 cells. In kind it is cell-based. For orientation: In a radioligand displacement assay an active substance lowers the binding of a labelled ligand.
The species named for assay [2] is Homo sapiens. Nature of the assay: Selectivity index, ratio of Ki for human M4 muscarinic receptor to Ki for human M5 muscarinic receptor.
In assay [3] the target is T2, Muscarinic acetylcholine receptor M5 (Homo sapiens, UniProt P08912).
T2 sequence (P08912 whole entry): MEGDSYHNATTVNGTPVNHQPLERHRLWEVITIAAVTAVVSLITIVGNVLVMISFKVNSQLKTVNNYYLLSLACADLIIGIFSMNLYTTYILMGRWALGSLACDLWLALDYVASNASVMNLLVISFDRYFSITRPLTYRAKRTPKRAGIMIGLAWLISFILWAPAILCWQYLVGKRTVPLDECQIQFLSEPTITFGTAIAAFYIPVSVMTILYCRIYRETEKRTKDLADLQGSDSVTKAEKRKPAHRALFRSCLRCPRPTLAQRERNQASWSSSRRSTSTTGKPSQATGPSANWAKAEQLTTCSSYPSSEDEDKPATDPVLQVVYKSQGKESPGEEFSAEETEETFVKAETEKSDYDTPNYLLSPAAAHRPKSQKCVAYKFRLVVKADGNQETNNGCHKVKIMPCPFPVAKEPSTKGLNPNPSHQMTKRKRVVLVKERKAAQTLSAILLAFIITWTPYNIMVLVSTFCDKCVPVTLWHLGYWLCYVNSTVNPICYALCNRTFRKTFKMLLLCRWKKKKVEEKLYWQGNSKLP
Put plainly: Displacement of [3H]NMS from human M5 muscarinic receptor expressed in CHO-K1 cells. In kind it is cell-based.

The target in assay [4] is T3, Muscarinic acetylcholine receptor M1 (Homo sapiens, UniProt P11229).
T3 sequence (P11229 whole entry): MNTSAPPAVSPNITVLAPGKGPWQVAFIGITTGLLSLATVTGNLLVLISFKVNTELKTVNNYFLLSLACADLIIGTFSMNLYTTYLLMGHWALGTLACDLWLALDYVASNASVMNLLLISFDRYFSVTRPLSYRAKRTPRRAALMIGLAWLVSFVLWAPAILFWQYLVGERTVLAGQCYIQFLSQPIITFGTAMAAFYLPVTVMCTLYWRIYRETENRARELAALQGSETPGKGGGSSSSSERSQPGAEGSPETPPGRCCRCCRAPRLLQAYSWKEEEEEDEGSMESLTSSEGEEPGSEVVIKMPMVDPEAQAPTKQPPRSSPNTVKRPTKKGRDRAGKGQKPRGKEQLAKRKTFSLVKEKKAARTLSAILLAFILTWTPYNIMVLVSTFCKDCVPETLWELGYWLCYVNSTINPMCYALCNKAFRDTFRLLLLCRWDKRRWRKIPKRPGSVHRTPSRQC
Put plainly: biochemical. In kind it is cell-based, CHO-K1.

Assay [5] addresses T4, Muscarinic acetylcholine receptor M2 (Homo sapiens, UniProt P08172).
T4 sequence (P08172 whole entry): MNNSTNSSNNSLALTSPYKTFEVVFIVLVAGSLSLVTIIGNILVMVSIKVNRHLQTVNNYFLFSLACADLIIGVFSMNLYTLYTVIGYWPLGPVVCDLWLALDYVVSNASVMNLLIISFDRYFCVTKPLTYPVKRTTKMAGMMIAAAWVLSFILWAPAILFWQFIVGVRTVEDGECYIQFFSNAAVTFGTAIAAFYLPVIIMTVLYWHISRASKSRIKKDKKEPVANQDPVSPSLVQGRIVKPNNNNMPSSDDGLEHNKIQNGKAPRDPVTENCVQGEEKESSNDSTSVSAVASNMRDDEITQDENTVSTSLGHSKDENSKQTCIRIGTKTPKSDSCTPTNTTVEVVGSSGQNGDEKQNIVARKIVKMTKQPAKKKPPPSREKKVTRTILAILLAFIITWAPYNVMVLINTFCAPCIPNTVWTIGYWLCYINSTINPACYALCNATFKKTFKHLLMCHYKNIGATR
Put plainly: Displacement of [3H]NMS from human M2 muscarinic receptor expressed in CHO-K1 cells. In kind it is cell-based.

The species entered for assay [6] is Homo sapiens. Put plainly: Selectivity index, ratio of Ki for human M1 muscarinic receptor to Ki for human M5 muscarinic receptor.
The species entered for assay [7] is Homo sapiens. Nature of the assay: Selectivity index, ratio of Ki for human M3 muscarinic receptor to Ki for human M5 muscarinic receptor.
For assay [8], the target named is T5, Muscarinic acetylcholine receptor M4 (Homo sapiens, UniProt P08173).
T5 sequence (P08173 whole entry): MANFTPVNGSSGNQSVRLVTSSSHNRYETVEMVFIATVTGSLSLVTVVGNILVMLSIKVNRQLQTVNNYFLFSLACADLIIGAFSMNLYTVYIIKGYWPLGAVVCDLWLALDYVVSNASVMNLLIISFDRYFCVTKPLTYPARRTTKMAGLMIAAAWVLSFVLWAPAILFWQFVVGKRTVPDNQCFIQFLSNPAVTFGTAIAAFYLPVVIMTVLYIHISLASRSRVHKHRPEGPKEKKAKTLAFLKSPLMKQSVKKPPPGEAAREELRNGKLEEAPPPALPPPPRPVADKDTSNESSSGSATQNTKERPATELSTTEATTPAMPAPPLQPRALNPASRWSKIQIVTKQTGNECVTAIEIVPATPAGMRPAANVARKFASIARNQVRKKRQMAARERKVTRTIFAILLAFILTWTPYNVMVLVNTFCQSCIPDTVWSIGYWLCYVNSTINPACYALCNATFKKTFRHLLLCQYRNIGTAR
Nature of the assay: Displacement of [3H]NMS from human M4 muscarinic receptor expressed in CHO-K1 cells. In kind it is cell-based.

The target of assay [9] is T6, Muscarinic acetylcholine receptor M5 (Rattus norvegicus) (UniProt P08911).
T6 sequence (whole entry): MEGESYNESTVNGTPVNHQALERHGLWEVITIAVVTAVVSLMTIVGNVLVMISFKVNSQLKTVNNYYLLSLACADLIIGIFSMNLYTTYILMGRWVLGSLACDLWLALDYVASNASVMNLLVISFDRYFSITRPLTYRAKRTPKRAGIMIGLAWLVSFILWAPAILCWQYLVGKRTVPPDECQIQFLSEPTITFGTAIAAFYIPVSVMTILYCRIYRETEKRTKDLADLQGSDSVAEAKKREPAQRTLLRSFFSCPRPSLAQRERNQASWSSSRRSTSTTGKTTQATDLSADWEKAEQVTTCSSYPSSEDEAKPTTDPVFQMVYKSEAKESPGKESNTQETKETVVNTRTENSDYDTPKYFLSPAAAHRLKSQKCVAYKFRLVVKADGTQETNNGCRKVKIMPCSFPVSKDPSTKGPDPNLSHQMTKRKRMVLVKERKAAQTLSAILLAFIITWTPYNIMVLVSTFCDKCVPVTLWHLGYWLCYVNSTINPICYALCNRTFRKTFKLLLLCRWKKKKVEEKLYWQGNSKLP
Put plainly: Orthosteric antagonist activity at M5 muscarinic receptor in rat striatal slices assessed as inhibition of 10 uM oxotremorine-evoked [3H]DA release.

Assay [10] concerns the target T6, Muscarinic acetylcholine receptor M5 (Rattus norvegicus). The settings on record: at 1 µM.
For assay [11], the target named is T4, Muscarinic acetylcholine receptor M2.
Assay [12] concerns the target T5, Muscarinic acetylcholine receptor M4. Put plainly: Binding affinity to human M4 muscarinic receptor.
Assay [13] deals with T1, Muscarinic acetylcholine receptor M3. Nature of the assay: Binding affinity to human M3 muscarinic receptor.

T1 sequence (P20309 whole entry): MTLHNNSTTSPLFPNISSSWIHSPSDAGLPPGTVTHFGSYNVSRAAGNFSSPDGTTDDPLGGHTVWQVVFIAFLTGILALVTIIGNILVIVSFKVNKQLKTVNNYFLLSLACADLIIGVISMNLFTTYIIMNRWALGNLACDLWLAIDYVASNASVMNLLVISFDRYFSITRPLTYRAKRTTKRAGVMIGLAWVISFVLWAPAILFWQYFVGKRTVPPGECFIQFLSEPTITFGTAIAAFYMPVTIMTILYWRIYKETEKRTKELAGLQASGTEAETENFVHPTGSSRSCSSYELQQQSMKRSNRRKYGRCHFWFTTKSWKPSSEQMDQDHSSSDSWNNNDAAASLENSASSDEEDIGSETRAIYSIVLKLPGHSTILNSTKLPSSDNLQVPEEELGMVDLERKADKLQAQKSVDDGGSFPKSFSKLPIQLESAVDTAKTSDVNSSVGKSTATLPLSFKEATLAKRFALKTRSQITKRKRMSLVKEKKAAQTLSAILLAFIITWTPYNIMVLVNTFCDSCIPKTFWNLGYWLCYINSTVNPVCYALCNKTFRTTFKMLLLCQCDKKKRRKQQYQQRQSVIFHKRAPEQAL

For the compound `CN1CCC(c2ccccc2F)=C(C(=O)OCCc2ccc3c(c2)CCO3)C1`, the Ki in assay [1] worked out at 4.89 µM; in assay [3], 0.74 µM; in [4] it was 5.27 µM; in [5], 0.54 µM; in assay [8], 5.74 µM. Further, the figures for the Ratio Ki in the assay filed under Homo sapiens [2], in the assay filed under Homo sapiens [6] and in the assay listed under Homo sapiens [7] were 7.8, 7 and 6.6, respectively.
For the compound `CCN1CCC(c2ccccc2)=C(C(=O)OCCc2ccc3c(c2)CCO3)C1`, the Ki in assay [1] was 31.1 µM; in assay [3], 0.23 µM; in assay [4], 1.39 µM; in assay [5], over 100 µM; in assay [8], 10.5 µM. Further, the Ratio Ki stood at 46 in the assay listed under Homo sapiens [2], 6 in the assay listed under Homo sapiens [6] and 135 in the assay listed under Homo sapiens [7].
`CCN1CCC(c2ccccc2)=C(C(=O)OCCCc2ccc(OC)cc2)C1`: the Ki in [1] came out at 4.07 µM; in assay [5] it was 2.03 µM; in [8], 11.5 µM.
As for `CN1CCC(c2ccccc2)=C(C(=O)OCCc2cccc3ccccc23)C1`, the Ki is over 100 µM in assay [1]; 5.04 µM in [3]; 24.4 µM in assay [4]; over 100 µM in [5]; over 100 µM in assay [8]. The Ratio Ki is over 20 in the assay listed under Homo sapiens [2], 4.8 in the assay filed under Homo sapiens [6] and over 20 in the assay listed under Homo sapiens [7].
Take `CN1CCC(c2ccccc2)=C(C(=O)OCCc2ccc3c(c2)CCO3)C1`: the Ki is 2.84 µM in assay [1]; 0.06 µM in [3]; 0.29 µM in [4]; 1.17 µM in assay [5]; 1.89 µM in assay [8]. Moreover, the Ratio Ki was 32 in the assay listed under Homo sapiens [2], 4.8 in the assay listed under Homo sapiens [6] and 47 in the assay listed under Homo sapiens [7].
On to `CN1[C@@H]2C[C@@H](OC(=O)[C@H](CO)c3ccccc3)C[C@H]1[C@@H]1O[C@@H]12`, for which the inhibition result in [9] was “Dose-dependent effect”. The compound also came in with an Imax in [10] of 100%.
For the compound `COc1ccc(CCOC(=O)C2=C(c3cccc(F)c3)CCN(C)C2)cc1OC`, the inhibition constant Ki in assay [1] is over 100 µM; in assay [3], 3.34 µM; in assay [4] it was 27 µM; in assay [5], over 100 µM; in assay [8], over 100 µM. In addition, the Ratio Ki in the assay listed under Homo sapiens [2] was over 30; in the assay listed under Homo sapiens [6], 8.1; in the assay listed under Homo sapiens [7], over 30.
On to `CCN(CC)CC1CCCCN1CC(=O)N1c2ccccc2C(=O)Nc2cccnc21` (stereo not drawn) [OTENZEPAD], for which the Ki was determined as 0.081 µM in assay [11], 0.407 µM in assay [12] and 2.09 µM in assay [13].

What is called Ki is a dissociation constant, usually derived from enzyme kinetics or from competition with a known ligand. Low readings indicate higher affinity, high ones lower affinity.
